PubChem BioAssay AID1199 (EPA DSSTox, 2008)
Activity calls are given as the source filed them.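 The calls were made as follows: active = a tumour-causing dose and a tumour site recorded for mice in at least one sex group; inconclusive = only government mouse studies exist and were judged inadequate; inactive = mouse studies exist but none gave tumours.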

System: mouse carcinogenicity bioassay, TD50 from CPDB
Assay: DSSTox (CPDBAS) Carcinogenic Potency Database Summary Mouse Bioassay Results
Procedure, shortened: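 Chronic long-term mouse cancer bioassays from literature and NCI/NTP, compiled per sex. TD50 is the standardized carcinogenic potency, using the most positive experiment per sex-species; target sites follow author opinion.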

[1] = TD50_Mouse_Note: no positive results, TargetSites_Mouse_Female: no positive results
[2] = TD50_Mouse_Note: TD50 is harmonic mean of more than one positive test, greater than ten-fold variation among TD50 values for positive res, TargetSites_Mouse_Female: liver
[3] = TD50_Mouse_Note: TD50 is harmonic mean of more than one positive test, TargetSites_Mouse_Female: liver, lung
[4] = TargetSites_Mouse_Female: liver
[5] = TD50_Mouse_Note: no positive results
[6] = TD50_Mouse_Note: TD50 is harmonic mean of more than one positive test, TargetSites_Mouse_Female: lung
[7] = TargetSites_Mouse_Female: no positive results
[8] = TD50_Mouse_Note: TD50 is harmonic mean of more than one positive test, TargetSites_Mouse_Female: liver
[9] = TD50_Mouse_Note: TD50 is harmonic mean of more than one positive test, TargetSites_Mouse_Female: lung, vascular system

O=C(Nc1ccc([N+](=O)[O-])cc1Cl)c1cc(Cl)ccc1O
outcome [1]: inactive; ntp bioassay inadequate

ClC(Cl)Cl
Potency [2]: 0.93 mmol/kg/day

O=S(=O)([O-])[O-].O=S(=O)([O-])[O-].[Zr+4]
outcome (TargetSites_Mouse_BothSexes: no positive results): inactive

CCN=c1cc2oc3cc(NCC)c(C)cc3c(-c3ccccc3C(=O)OCC)c-2cc1C
outcome [1]: inactive; no positive results

Cc1cc(C)c(N)cc1C
Potency [3]: 0.265 mmol/kg/day | Potency [4]: 0.0453 mmol/kg/day

Cc1cnc2ccc3c(nc(N)n3C)c2n1
Potency [3]: 0.114 mmol/kg/day

CC(Cc1ccccc1)NN (centres undefined)
outcome [1]: inactive; no positive results

ClC(Cl)(Cl)Cl
Potency (TD50_Mouse_Note: TD50 is harmonic mean of more than one positive test, greater than ten-fold variation among TD50 values for positive res, TargetSites_Mouse_Female: adrenal gland, liver): 0.218 mmol/kg/day

NNC=O
Potency (TD50_Mouse_Note: TD50 is harmonic mean of more than one positive test, harmonic mean of TD50 includes a value for upper 99% confidence li, TargetSites_Mouse_Female: lung): 0.606 mmol/kg/day

Cc1cc(O)c(C)c2c1OC(C)(CCCC(C)CCCC(C)CCCC(C)C)CC2 (centres undefined)
Potency: 8.66 mmol/kg/day

NC(N)=O
outcome [1]: inactive; no positive results

CC(=O)O[C@]1(C(C)=O)CC[C@H]2[C@@H]3C=C(Cl)C4=CC(=O)[C@@H]5C[C@@H]5[C@]4(C)[C@H]3CC[C@@]21C
Potency (TD50_Mouse_Note: TD50 is harmonic mean of more than one positive test, TargetSites_Mouse_Female: liver, stomach): 0.0525 mmol/kg/day

CC(=O)[O][Sn]([c]1ccccc1)([c]1ccccc1)[c]1ccccc1
outcome [1]: inactive; no positive results

O.O.O.O.O.O.O.O.O=S(=O)([O-])[O-].O=S(=O)([O-])[O-].O=S(=O)([O-])[O-].[Cd+2].[Cd+2].[Cd+2]
outcome [5]: inactive; no positive results

CN(C)c1ccc(C(=C2C=CC(=[N+](C)C)C=C2)c2ccc(N(C)C)cc2)cc1
Potency (TD50_Mouse_Note: TD50 is harmonic mean of more than one positive test, TargetSites_Mouse_Female: harderian gland, hematopoietic system, liver): 0.222 mmol/kg/day

Nc1ccc(Cl)c(N)c1
Potency [4]: 8.63 mmol/kg/day

Cn1c(N)nc2c3cccnc3ccc21
Potency (TD50_Mouse_Note: TD50 is harmonic mean of more than one positive test, TargetSites_Mouse_Female: liver, lung, stomach): 0.0989 mmol/kg/day

C=CCl
Potency (TD50_Mouse_Note: TD50 is harmonic mean of more than one positive test, TargetSites_Mouse_Female: lung, mammary gland, vascular system): 0.349 mmol/kg/day

O=S(=O)(O)O
Potency (TD50_Mouse_Note: TD50 is harmonic mean of more than one positive test, greater than ten-fold variation among TD50 values for positive res, TargetSites_Mouse_Female: liver, lung): 0.0583 mmol/kg/day

C=CC(O)c1ccc(OC)cc1 (centres undefined)
Potency [4]: 0.352 mmol/kg/day

Nc1cccc2c(N)cccc12
Potency (TD50_Mouse_Note: TD50 is harmonic mean of more than one positive test, TargetSites_Mouse_Female: liver, lung, thyroid gland): 1.02 mmol/kg/day

O.O.O.O.O.O.O.O=S(=O)([O-])[O-].[Co+2]
Potency [6]: 0.00269 mmol/kg/day

CC(C)N(C(=O)SC/C(Cl)=C/Cl)C(C)C
Potency (TD50_Mouse_Note: TD50 is harmonic mean of more than one positive test, TargetSites_Mouse_Female: no positive results): 0.0988 mmol/kg/day

c1ccc(N=Nc2ccccc2)cc1
outcome [1]: inactive; no positive results

[O-][Br+2]([O-])O
Potency [7]: 0.322 mmol/kg/day

CCCCC1C(=O)N(c2ccccc2)N(c2ccccc2)C1=O
Potency [7]: 1.14 mmol/kg/day

OC[C@@H](O)[C@@H](O)[C@H](O)[C@H](O)CO
outcome [1]: inactive; no positive results

C[C@@H]1Cc2c(Cl)cc(C(=O)N[C@@H](Cc3ccccc3)C(=O)O)c(O)c2C(=O)O1
Potency [8]: 0.0159 mmol/kg/day

CCCCNC(N)=O
outcome [1]: inactive; no positive results

CCOc1ccc(NC(C)=O)cc1[N+](=O)[O-]
Potency [7]: 10.1 mmol/kg/day

NNCc1ccccc1
Potency (TargetSites_Mouse_Female: lung): 0.437 mmol/kg/day

Nc1ccccc1C(=O)OC/C=C/c1ccccc1
Potency [8]: 10.2 mmol/kg/day

CC1=CC(=O)NS(=O)(=O)O1
outcome [1]: inactive; no positive results

C1CCOC1
Potency [4]: 18 mmol/kg/day

CCNN
Potency [9]: 0.0679 mmol/kg/day

[Cd+2].[Cl-].[Cl-]
outcome [1]: inactive

Nc1ccc(/C=C/c2ccc(N)cc2S(=O)(=O)O)c(S(=O)(=O)O)c1
outcome [1]: inactive; no positive results

CC[C@H](OC(C)=O)C(C[C@H](C)N(C)C)(c1ccccc1)c1ccccc1
outcome [1]: inactive; no positive results

COc1ccc2c3c1O[C@H]1[C@@H](O)C=C[C@H]4[C@@H](C2)N(C)CC[C@@]341
outcome [1]: inactive; no positive results

Nc1ccc([N+](=O)[O-])cc1
outcome [1]: inactive; no positive results

O=C1CCc2ccccc2O1
Potency [4]: 4.88 mmol/kg/day

c1ccc(Nc2ccc(Nc3ccccc3)cc2)cc1
outcome [1]: inactive; no positive results

NNCCc1ccccc1
Potency (TargetSites_Mouse_Female: lung, vascular system): 0.0623 mmol/kg/day

CCOc1ccc(NC(C)=O)cc1
Potency (TD50_Mouse_Note: TD50 is harmonic mean of more than one positive test, greater than ten-fold variation among TD50 values for positive res, TargetSites_Mouse_Female: urinary bladder): 11.9 mmol/kg/day

CC1CC(C)(C)CC(OOC(C)(C)C)(OOC(C)(C)C)C1 (centres undefined)
outcome [1]: inactive; no positive results

C[C@]12C=CC(=O)C=C1CC[C@@H]1[C@@H]2C(=O)C[C@@]2(C)[C@H]1CC[C@]2(O)C(=O)CO
outcome [1]: inactive; no positive results

Cc1ccc(Cc2cnc(NCCSCc3ccc(CN(C)C)o3)[nH]c2=O)cn1
outcome [1]: inactive; no positive results

CC(Cl)Cl
outcome [1]: inactive; no positive results

O=c1c(O)c(-c2ccc(O)c(O)c2)oc2cc(O)cc(O)c12
outcome [1]: inactive; no positive results

COc1ccccc1N
Potency (TD50_Mouse_Note: TD50 is harmonic mean of more than one positive test, TargetSites_Mouse_Female: urinary bladder): 6.05 mmol/kg/day

CN(C)N
Potency [9]: 0.0659 mmol/kg/day

Nc1ccc2c(c1)C(=O)c1ccccc1C2=O
Potency (TD50_Mouse_Note: TD50 is harmonic mean of more than one positive test, TargetSites_Mouse_Female: hematopoietic system, liver): 5.33 mmol/kg/day

CC1=C[C@H]2O[C@@H]3[C@H](O)C[C@@](C)(C34CO4)[C@@]2(CO)[C@H](O)C1=O (some centres undefined)
outcome [5]: inactive; no positive results

Cc1ccc(N)cc1N
Potency [8]: 1.04 mmol/kg/day | Potency [4]: 0.219 mmol/kg/day

O=C(O)/C=C/c1ccc(O)c(O)c1
Potency (TD50_Mouse_Note: TD50 is harmonic mean of more than one positive test, TargetSites_Mouse_Female: kidney, stomach): 27.2 mmol/kg/day

O[C@H]([C@H](O)[C@@H](O)CBr)[C@H](O)CBr
Potency (TD50_Mouse_Note: positive test results only by intraperitoneal or intravenous injection, TD50 is harmonic mean of more than one positive, TargetSites_Mouse_Female: hematopoietic system, lung): 0.0357 mmol/kg/day

CC(=O)Nc1ccc(CC(=O)O)cc1
outcome [1]: inactive; no positive results

C[C@](N)(Cc1ccc(O)c(O)c1)C(=O)O
outcome [1]: inactive; no positive results

Cc1ccccc1[N+](=O)[O-]
Potency (TD50_Mouse_Note: TD50 is harmonic mean of more than one positive test, TargetSites_Mouse_Female: large intestine, liver, vascular system): 0.933 mmol/kg/day

Cc1ccc2c(c1[N+](=O)[O-])C(=O)c1ccccc1C2=O
Potency (TD50_Mouse_Note: TD50 is harmonic mean of more than one positive test, TargetSites_Mouse_Female: vascular system): 0.00584 mmol/kg/day

CC1=CC(=O)CC(C)(C)C1
outcome [1]: inactive; no positive results

CCOP(=S)(OCC)Oc1ccc2c(C)c(Cl)c(=O)oc2c1
outcome [1]: inactive; no positive results

Clc1ccccc1Cl
outcome [1]: inactive; no positive results

O=C1CCCCC1
outcome [1]: inactive; no positive results

NC(=S)Nc1cccc2ccccc12
outcome [1]: inactive; no positive results

O=CCCCC=O
outcome [1]: inactive; no positive results

CC/C(=C(/CC)c1ccc(O)cc1)c1ccc(O)cc1
Potency (TD50_Mouse_Note: TD50 is harmonic mean of more than one positive test, TargetSites_Mouse_Female: mammary gland, ovary, pituitary gland, thyroid gland, uterus): 0.000146 mmol/kg/day

CC(O)c1ccccc1 (centres undefined)
outcome [1]: inactive; no positive results

ClC/C=C/CCl
Potency (TD50_Mouse_Note: positive test results only by intraperitoneal or intravenous injection, TargetSites_Mouse_Female: peritoneal cavity): 0.0122 mmol/kg/day

OCC(CO)(CBr)CBr
Potency (TD50_Mouse_Note: TD50 is harmonic mean of more than one positive test, TargetSites_Mouse_Female: harderian gland, lung, subcutaneous tissue): 0.523 mmol/kg/day

COc1ccc(C)cc1N
Potency (TD50_Mouse_Note: TD50 is harmonic mean of more than one positive test, TargetSites_Mouse_Female: liver, urinary bladder): 0.396 mmol/kg/day

CN(C)NC(=O)CCC(=O)O
Potency [9]: 6.43 mmol/kg/day

ClC1=C(Cl)C(Cl)(Cl)C(Cl)=C1Cl
outcome [1]: inactive; no positive results

O=C(O)CN(CC(=O)O)CC(=O)O
Potency (TD50_Mouse_Note: TD50 is harmonic mean of more than one positive test, TargetSites_Mouse_Female: kidney): 13.9 mmol/kg/day | outcome [1]: inactive; no positive results

O.O=S(=O)([O-])[O-].[Mn+2]
outcome [1]: inactive; no positive results

C=CCCl
outcome [1]: inactive; no positive results

C=CC(=C)Cl
Potency (TD50_Mouse_Note: TD50 is harmonic mean of more than one positive test, TargetSites_Mouse_Female: ear Zymbals gland, harderian gland, liver, lung, mammary gland, peritoneal cavity, stomach, subcutaneous tissue, vascula): 0.0923 mmol/kg/day

C1COCCO1
Potency [2]: 2.32 mmol/kg/day

FC(F)=C(F)F
Potency (TD50_Mouse_Note: TD50 is harmonic mean of more than one positive test, TargetSites_Mouse_Female: hematopoietic system, liver, vascular system): 0.719 mmol/kg/day

O=[N+]([O-])c1cc([As](=O)(O)O)ccc1O
outcome [1]: inactive; no positive results

O=C(O)CCCC/C=C(\c1ccccc1)c1cccnc1
outcome [1]: inactive; no positive results

CCC1CO1 (centres undefined)
outcome [1]: inactive; no positive results

O=S(=O)(O)NC1CCCCC1
Potency (TD50_Mouse_Note: TD50 is harmonic mean of more than one positive test, TargetSites_Mouse_Female: all tumor bearing animals): 3.31 mmol/kg/day

CCCCCCCCS(=O)C(C)Cc1ccc2c(c1)OCO2 (centres undefined)
Potency [7]: 0.192 mmol/kg/day

Cc1cn([C@H]2C[C@H](N=[N+]=[N-])[C@@H](CO)O2)c(=O)[nH]c1=O
Potency (TD50_Mouse_Note: TD50 is harmonic mean of more than one positive test, TargetSites_Mouse_Female: vagina): 1.11 mmol/kg/day

C=Cc1ccccc1
Potency [6]: 2.02 mmol/kg/day

CC(C)(C)c1cc(O)ccc1O
outcome [1]: inactive; no positive results

Clc1ccc(C(c2ccc(Cl)cc2)C(Cl)Cl)cc1
Potency [6]: 0.0959 mmol/kg/day

O=CNc1nc(-c2ccc([N+](=O)[O-])o2)cs1
Potency (TD50_Mouse_Note: TD50 is harmonic mean of more than one positive test, greater than ten-fold variation among TD50 values for positive res, TargetSites_Mouse_Female: hematopoietic system, lung, stomach, urinary bladder): 0.0824 mmol/kg/day

Cc1ccc2c(-c3cccc(O)c3)nc(=O)n(C(C)C)c2c1
outcome [1]: inactive; no positive results

O=S(=O)(O)c1ccc(N=Nc2cc(S(=O)(=O)O)c3ccccc3c2O)c2ccccc12
outcome [1]: inactive; no positive results
